Assay results taken from patent US20090081197A1 (Palatin Technologies, Inc., priority 2007, published 2009).
Where two headings read alike, the source gives them in different places. Positions of bridges follow the written chain, without caps; N, C: chain ends. Non-standard residues stand in square brackets, D forms with d. Residues, ends and D or L forms follow the SMILES beside them. *: point of attachment. Acetyl(2-naphthyl) = O=C(Cc1ccc2ccccc2c1)*; dPhe(4-Cl) = N[C@H](Cc1ccc(Cl)cc1)C(=O)O; 1Nal = N[C@@H](Cc1cccc2ccccc12)C(=O)O; 2Nal = N[C@@H](Cc1ccc2ccccc2c1)C(=O)O; d2Nal = N[C@H](Cc1ccc2ccccc2c1)C(=O)O; Ac6c = NC1(C(=O)O)CCCCC1; Heptanoyl = CCCCCCC(=O)*; Nle = CCCC[C@H](N)C(=O)O; Bn = c1ccc(C*)cc1

Assays:
MC4-R [1] = biological target: T1, MC4-R (Homo sapiens, UniProt P32245); assay: cAMP agonist stimulation, high receptor density system (10 ng/mL doxycycline); settings: for Efficacy/Intrinsic Activity: 10 ng/mL doxycycline, high receptor density hMC4-R system, NDP-α-MSH maximal cAMP = 1.0
T1 sequence (P32245 whole entry): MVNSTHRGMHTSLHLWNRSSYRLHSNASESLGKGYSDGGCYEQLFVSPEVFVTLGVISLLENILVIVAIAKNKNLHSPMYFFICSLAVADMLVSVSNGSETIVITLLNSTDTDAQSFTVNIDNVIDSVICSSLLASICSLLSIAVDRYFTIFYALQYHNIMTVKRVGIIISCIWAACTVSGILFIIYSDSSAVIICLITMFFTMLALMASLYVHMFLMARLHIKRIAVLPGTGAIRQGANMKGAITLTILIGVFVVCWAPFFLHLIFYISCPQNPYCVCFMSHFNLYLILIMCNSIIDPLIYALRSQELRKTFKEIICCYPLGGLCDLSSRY

MC4-R [2] = biological target: T1, MC4-R; assay: cAMP agonist stimulation, low receptor density system (0.1 ng/mL doxycycline); settings: for Efficacy/Intrinsic Activity: 0.1 ng/mL doxycycline, low receptor density hMC4-R system, NDP-α-MSH maximal cAMP = 1.0
[3] = Penile erection induction in male rats; type: in vivo; settings: rat
Method: Penile erection induction. The ability of compounds to induce penile erection (PE) in male rats was evaluated with selected compounds. Male Sprague-Dawley rats weighing 200-250 g were kept on a 12 hour on/off light cycle with food and water ad libitum. All behavioral studies were performed between 10 A.M. and 5 P.M. Groups of 4-8 rats were treated with compounds at a variety of doses via intravenous (IV) or intracerebroventricular (ICV) routes. Immediately after treatment, rats were placed into individual polystyrene cages (27 cm long, 16 cm wide, and 25 cm high) for behavioral observation. […] Controls utilized carrier without the test compound. Mean PEs in control groups were 0.17 to 0.5 PEs/rat by IV administration in various experiments and between 1-2 PEs/rat by ICV administration in various experiments, and thus only PEs with statistically relevant increases over the mean PEs in control groups are reported as inducing PEs. A PE response in IV animals greater than the mean PEs in control groups but less than 1.0 PEs/rat, particularly with less than all animals responding, was treated as equivocal, and not necessarily distinguishable from vehicle control. In selected instances, compounds with equivocal results in the IV model were tested for penile response in an ICV model, and compounds without a statistically relevant increase over the mean PEs in ICV control groups were determined to not induce PEs.

[4] = ICV food intake and body weight change; type: in vivo; settings: rat, 1 nmol, 24 hours
Method: ICV food intake and body weight change. Change in food intake and body weight was evaluated for selected compounds. Rats with indwelling intracerebroventricular cannulas (ICV rats) were obtained from Hilltop Lab Animals, Inc. (Scottdale, Pa.). Animals were individually housed in conventional plexiglass hanging cages and maintained on a controlled 12 hour on/off light cycle. Water and powdered (LabDiet, 5P00 Prolab RMH 3000) or pelleted (Harlan Teklad 2018 18% Protein Rodent Diet) food was provided ad libitum. For 1 week before treatment, 24-hour food intake and body weight change was recorded to assess a baseline for the group during vehicle treatment. The rats were dosed ICV with vehicle or selected compounds (1-3 nmol). The changes in body weight and food intake for the 24 hour period after dosing were determined. The changes in body weight and food intake for the 48 hour and 72 hour periods after dosing were also measured to determine reversal of changes in body weight and food intake effects back to baseline levels.

MC4-R [5] = biological target: T1, MC4-R; assay: cAMP functional activity assay in HEK-293 cells, normal system; type: cell-based; set-up: expressed in transfected cells; host or cells: HEK-293; settings: for intrinsic activity at MC4-R in a normal system: NDP-α-MSH = 1.0
Method: General method for EC50 determination in functional activity assay. […] Data analysis and EC50 values were determined using nonlinear regression analysis with Prism Graph-Pad software.
Functional status. The agonist/antagonist status with respect to MC1-R, MC-3R, MC4-R and MC5-R of certain compounds of the invention was determined. Antagonistic activity was determined by measuring the inhibition of α-MSH-induced or NDP-α-MSH-induced cAMP levels following exposure to graded doses of compounds as in the preceding descriptions.
Assay for agonist. Evaluation of the molecules to elicit a functional response in HEK-293 cells expressing MC4-R was accomplished by measuring the accumulation of intracellular cAMP following treatment. Confluent HEK-293 cells expressing MC4-R receptors were detached by enzyme free cell suspension buffer. […] The cells were plated in a 96 well plates at a density of 0.5×10^5 cells per well and pre-incubated for 30 minutes. Test compounds (dissolved in dimethylsulfoxide (DMSO) at a concentration range of 0.05-5000 nM) were added in a total assay volume of 200 μL and cells were incubated for 1 hour at 37° C. The concentration of DMSO was always held at 1% in the assay mixture. NDP-α-MSH was used as the reference agonist. […] Data analysis and EC50 values were determined by using nonlinear regression analysis with Prism Graph-Pad software. […] Compounds with a response ratio of less than 0.1 (10%) were evaluated for antagonistic activity.

MC1-R = biological target: T2, MC1-R (Mus musculus, UniProt Q01727); assay: Competitive inhibition assay using [I^125]-NDP-α-MSH, B-16 mouse melanoma cell membranes; type: binding; settings: read-out: Inhibition at 1 μM (NDP-α-MSH) In Normal System, MC1-R
T2 construct: B-16 mouse melanoma cells (containing MC1-R); endogenous in cells
T2 sequence (Q01727 whole entry): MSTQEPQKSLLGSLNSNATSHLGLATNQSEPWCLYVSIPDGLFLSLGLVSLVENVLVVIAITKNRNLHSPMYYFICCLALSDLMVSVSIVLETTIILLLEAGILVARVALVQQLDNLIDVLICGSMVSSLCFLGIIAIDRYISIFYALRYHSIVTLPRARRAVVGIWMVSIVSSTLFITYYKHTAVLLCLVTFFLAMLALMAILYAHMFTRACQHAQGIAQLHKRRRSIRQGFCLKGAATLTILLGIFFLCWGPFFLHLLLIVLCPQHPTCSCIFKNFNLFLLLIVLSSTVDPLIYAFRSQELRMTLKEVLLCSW
Method: (§1) The ligand concentration used was 0.4 nM for MC3-R and MC5-R, 0.2 nM for MC4-R and 0.1 nM for B16-F10 (MC1-R) membranes. In certain experiments, hMC1-R was also employed.
(§2) The assay mixture was incubated for 90 minutes at room temperature, then filtered and the membranes washed three times with ice cold buffer. The filter was dried and counted in a gamma counter for remaining radioactivity bound to the membranes. […] Each assay was conducted in triplicate and the actual mean values are described, with results less than 0% reported as 0%.

MC5-R = MC5-R (Homo sapiens, UniProt P33032); assay: Competitive inhibition assay using [I^125]-NDP-α-MSH, hMC5-R membranes; type: binding; set-up: expressed in transfected cells; settings: for inhibition at 1 µM: read-out: Inhibition at 1 μM (NDP-α-MSH) In Normal System, MC5-R
Sequence of MC5-R (P33032 whole entry): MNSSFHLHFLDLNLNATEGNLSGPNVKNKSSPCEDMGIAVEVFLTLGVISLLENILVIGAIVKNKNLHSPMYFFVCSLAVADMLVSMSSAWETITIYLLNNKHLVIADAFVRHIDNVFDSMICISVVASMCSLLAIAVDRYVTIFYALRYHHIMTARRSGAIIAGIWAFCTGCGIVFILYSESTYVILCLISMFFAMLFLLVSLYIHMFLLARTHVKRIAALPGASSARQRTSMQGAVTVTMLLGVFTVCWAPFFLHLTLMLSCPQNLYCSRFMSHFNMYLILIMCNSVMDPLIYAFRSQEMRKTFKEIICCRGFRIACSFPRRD
Method: as §1, §2

MC4-R [6] = biological target: T1, MC4-R; assay: Competitive inhibition assay using [I^125]-NDP-α-MSH, hMC4-R membranes; type: binding; set-up: host or cells: TREx-293 (HEK-293 stably expressing Tet repressor); settings: for inhibition at 1 µM: read-out: Inhibition at 1 μM (NDP-α-MSH) In Normal System, MC4-R; for Ki: read-out: Ki (nM) (NDP-α-MSH) In Normal System, MC4-R
Method: as §1, §2

MC3-R = MC3-R (Homo sapiens, UniProt P41968); assay: Competitive inhibition assay using [I^125]-NDP-α-MSH, hMC3-R membranes; type: binding; set-up: expressed in transfected cells; settings: read-out: Inhibition at 1 μM (NDP-α-MSH) In Normal System, MC3-R
Sequence of MC3-R (P41968 whole entry): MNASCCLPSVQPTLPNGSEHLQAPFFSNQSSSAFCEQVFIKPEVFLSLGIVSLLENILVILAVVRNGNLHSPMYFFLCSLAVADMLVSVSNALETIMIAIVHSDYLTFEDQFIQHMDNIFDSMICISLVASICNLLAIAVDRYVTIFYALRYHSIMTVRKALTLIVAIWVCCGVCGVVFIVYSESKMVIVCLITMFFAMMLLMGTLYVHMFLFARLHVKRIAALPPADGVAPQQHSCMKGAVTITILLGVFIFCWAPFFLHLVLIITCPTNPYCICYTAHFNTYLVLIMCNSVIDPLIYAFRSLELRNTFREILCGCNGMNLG
Method: as §1, §2

[7] = normal system, 1 μM concentration where stated

| EC50 (MC4-R [1]) [nM] | inhibition at 1 µM (MC1-R; 1 μM test compound) [%] | inhibition at 1 µM (MC5-R; 1 μM test compound) [%] | inhibition at 1 µM (MC4-R [6]; 1 μM test compound) [%] | Ki (MC4-R [6]) [nM] | inhibition at 1 µM (MC3-R; 1 μM test compound) [%] | EC50 (MC4-R [2]) [nM] | Structure (SMILES) | further results |
| --- | --- | --- | --- | --- | --- | --- | --- | --- |
| – | – | – | – | – | – | – | N=C(N)NCCC[C@H](NC(=O)[C@@H](Cc1ccc(Cl)cc1)NC(=O)C1(NC(=O)Cc2ccc3ccccc3c2)CCCCC1)C(=O)N[C@@H](Cc1c[nH]c2ccccc12)C(N)=O [Example 24, 2-naphthylacetyl-1-amino-1-cyclohexane-carbonyl-D-Phe(4-Cl)-Arg-Trp-NH2] ({Acetyl(2-naphthyl)}-[Ac6c][dPhe(4-Cl)]RW-NH2) | Efficacy/Intrinsic Activity (MC4-R [2]): None; Efficacy/Intrinsic Activity (MC4-R [1]): None; decrease in body weight [4]: 1%; decrease in food intake [4]: 21%; intrinsic activity at MC4-R in a normal system (MC4-R [5]; normal receptor density system): 0.2; functional status at MC4-R in cAMP assay (MC4-R [5]; [7]): partial agonist (intrinsic activity between 0.1 (10%) and 0.7 (70%) is classified as a partial agonist) |
| – | – | – | – | – | – | – | CNC(=O)[C@@H]1CCCCNC(=O)C[C@H](NC(C)=O)C(=O)N[C@@H](Cc2c[nH]c3ccccc23)C(=O)N[C@H](Cc2ccc3ccccc3c2)C(=O)N[C@@H](CCCNC(=N)N)C(=O)N[C@@H](Cc2ccc3ccccc3c2)C(=O)N1 [Example 35, Ac-cyclo(Asp-Trp-D-Nal 2-Arg-Nal 2-Lys)-NH—CH3] (Ac-DW[d2Nal]R[2Nal]K-NHMe; lactam 1-6) | inhibition at 1 µM (MC1-R): 67%; inhibition at 1 µM (MC5-R): 98%; functional status at MC4-R in cAMP assay (MC4-R [5]; at 1 nM dose): inactive; inhibition at 1 µM (MC4-R [6]): 100%; inhibition at 1 µM (MC3-R): 99% |
| 4 | 71 | 92 | 99 | 38 | 83 | – | CCCC[C@H](NC(C)=O)C(=O)N[C@H]1CC(=O)NCCCC[C@@H](C(=O)N(C)C)NC(=O)[C@H](Cc2cccc3ccccc23)NC(=O)[C@H](CCCNC(=N)N)NC(=O)[C@@H](Cc2ccccc2)NC(=O)[C@H](Cc2c[nH]c3ccccc23)NC1=O [Example 36, Ac-Nle-cyclo(-Asp-Trp-D-Phe-Arg-Nal 1-Lys)-N(CH3)2] (Ac-[Nle]DW[dF]R[1Nal]K-NMe2; lactam 2-7) | – |
| 0.6 | 82 | 92 | 100 | 5 | 92 | 2.1 | CCCC[C@H](NC(C)=O)C(=O)N[C@H]1CC(=O)NCCCC[C@@H](C(=O)N(C)C)NC(=O)[C@H](Cc2cccc3ccccc23)NC(=O)[C@H](CCCNC(=N)N)NC(=O)[C@@H](Cc2ccccc2)NC(=O)[C@H](Cc2c[nH]cn2)NC1=O [Example 37, Ac-Nle-cyclo(-Asp-His-D-Phe-Arg-Nal 1-Lys)-N(CH3)2] | – |
| 10 | 98 | 92 | 100 | 9 | 92 | – | CCCC[C@H](NC(C)=O)C(=O)N[C@H]1CC(=O)NCCCC[C@@H](C(=O)NCC)NC(=O)[C@H](Cc2cccc3ccccc23)NC(=O)[C@H](CCCNC(=N)N)NC(=O)[C@@H](Cc2ccccc2)NC(=O)[C@H](Cc2c[nH]c3ccccc23)NC1=O [Example 38, Ac-Nle-cyclo(-Asp-Trp-D-Phe-Arg-Nal 1-Lys)-NH—CH2—CH3] (Ac-[Nle]DW[dF]R[1Nal]K-NHEt; lactam 2-7) | – |
| 1.1 | 100 | 93 | 98 | 2 | 93 | 10 | CCCC[C@H](NC(C)=O)C(=O)N[C@H]1CC(=O)NCCCC[C@@H](C(=O)NCC)NC(=O)[C@H](Cc2cccc3ccccc23)NC(=O)[C@H](CCCNC(=N)N)NC(=O)[C@@H](Cc2ccccc2)NC(=O)[C@H](Cc2c[nH]cn2)NC1=O [Example 39, Ac-Nle-cyclo(-Asp-His-D-Phe-Arg-Nal 1-Lys)-NH—CH2—CH3] | – |
| 0.5 | 96 | 16 | 96 | 6 | 65 | 3.1 | CCNC(=O)[C@@H]1CCCCNC(=O)C[C@H](NC(C)=O)C(=O)N[C@@H](Cc2c[nH]cn2)C(=O)N[C@H](Cc2ccccc2)C(=O)N[C@@H](CCCNC(=N)N)C(=O)N[C@@H](Cc2c[nH]c3ccccc23)C(=O)N1 [Example 40, Ac-cyclo(-Asp-His-D-Phe-Arg-Trp-Lys)-NH—CH2—CH3] | Ki (MC5-R; read-out: Ki (nM) (NDP-α-MSH) In Normal System, MC5-R): > 1000 nM; EC50 (MC4-R [5]; normal receptor density system): 3 nM |
| – | – | – | – | – | – | – | CCCC[C@H](NC(C)=O)C(=O)N[C@H]1CC(=O)NCCCC[C@@H](C(=O)O)NC(=O)[C@H](Cc2c[nH]c3ccccc23)NC(=O)[C@H](CCCNC(=N)N)NC(=O)[C@@H](Cc2ccccc2)NC(=O)[C@H](Cc2c[nH]cn2)NC1=O [PT-141, cyclo 2,7[Ac-Nle-Asp-His-D-Phe-Arg-Trp-Lys]-OH, reference compound] | Penile Erection ICV ([3]; ICV): Yes**; Penile Erection IV ([3]; IV): Yes** |

| Structure (SMILES) | EC50 (MC4-R [1]) [nM] | inhibition at 1 µM (MC1-R; 1 μM test compound) [%] | inhibition at 1 µM (MC5-R; 1 μM test compound) [%] | inhibition at 1 µM (MC4-R [6]; 1 μM test compound) [%] | Ki (MC4-R [6]) [nM] | inhibition at 1 µM (MC3-R; 1 μM test compound) [%] | EC50 (MC4-R [2]) [nM] | further results |
| --- | --- | --- | --- | --- | --- | --- | --- | --- |
| C[C@H](NC(=O)[C@H](CCCNC(=N)N)NC(=O)[C@@H](Cc1ccc(Cl)cc1)NC(=O)[C@H](COCc1ccccc1)NC(=O)CCCCCCN)c1cccc2ccccc12 [Example 16, 7′-amino-heptanoyl-Ser(Bzl)-D-Phe(4-Cl)-Arg-S-(−)-1-(1-naphthyl)ethylamide] | 180 | – | – | – | – | – | – | – |
| CCCCCCC(=O)N[C@H](C(=O)N[C@H](Cc1ccc(Cl)cc1)C(=O)N[C@@H](CCCNC(=N)N)C(=O)N[C@@H](Cc1c[nH]c2ccccc12)C(N)=O)[C@@H](C)OCc1ccccc1 [Example 23, Heptanoyl-Thr(Bzl)-D-Phe(4-Cl)-Arg-Trp-NH2] (Heptanoyl-T(Bn)[dPhe(4-Cl)]RW-NH2) | 184 | – | – | – | – | – | – | Efficacy/Intrinsic Activity (MC4-R [2]): None; Efficacy/Intrinsic Activity (MC4-R [1]): 0.75; Penile Erection IV ([3]; IV): No; penile erection response ([3]; IV, 1 μg/kg): no penile erection response; decrease in body weight [4]: 1%; decrease in food intake [4]: 18%; intrinsic activity at MC4-R in a normal system (MC4-R [5]; normal receptor density system): 0.4; functional status at MC4-R in cAMP assay (MC4-R [5]; [7]): partial agonist (intrinsic activity between 0.1 (10%) and 0.7 (70%) is classified as a partial agonist) |
